Key:
[1] = cited from earlier work
[2] = symptoms associated with chronic nasal congestion, cited from earlier work
Solubility = format: physicochemical
rhinoviruses = conditions: cited from earlier work
[3] = cited from earlier work; remark: listed apart in the source
[4] = test system: secretions of natural tear components; conditions: preclinical testing; cited from earlier work

C[C@@H]1C[C@H]2[C@@H]3CCC4=CC(=O)C=C[C@]4(C)[C@@]3(Cl)[C@@H](O)C[C@]2(C)[C@@]1(OC(=O)c1ccco1)C(=O)CCl [Mometasone Furoate]
bioavailability [1]: not readily bioavailable

Oc1cccc(Nc2ncc(F)c(Nc3cccc(O)c3)n2)c1 [Example R112]
improvement from baseline measurements ([2]; baseline prior to drug initiation): up to 38% | absolute difference over placebo [2]: 9% | relative improvement over placebo [2]: greater than 20%

Cc1cc(CCCOc2c(C)cc(-c3noc(C(F)(F)F)n3)cc2C)on1 [Pleconaril, 1,2,4-oxadiazole3-[3,5-Dimethyl-4-[3-(3-methyl-5-isoxazolyl)propoxy]phenyl]-5-(trifluoremethyl)]
solubility in condensed phases of hydrofluorocarbons (Solubility; certain condensed phases of hydrofluorocarbons, e.g. HFA 227): can be dissolved | solubility in certain glyceride oils (Solubility; certain glyceride oils, e.g. Miglyol 812): can be dissolved | activity against rhinoviruses (rhinoviruses): active | solubility in aqueous solvents [3]: insoluble

O=c1ccn([C@@H]2O[C@H](COP(=O)(O)OP(=O)(O)OP(=O)(O)OP(=O)(O)OC[C@H]3O[C@@H](n4ccc(=O)[nH]c4=O)[C@H](O)[C@@H]3O)[C@@H](O)[C@H]2O)c(=O)[nH]1 [diquafosol]
secretions of natural tear components [4]: increased
